Publication PMC10046369, “Low-Affinity/High-Selectivity Dopamine Transport Inhibition Sufficient to Rescue Cognitive Functions in the Aging Rat” (Biomolecules, 2023)

How the values were obtained:
Test in all cases: cell-based
Set-up in all cases: functional GPCR antagonist screen (Eurofins Cerep), percent inhibition of control agonist response
Details in all cases: antagonist effect, against control agonist; read-out: % Inhibition of Control Agonist Response, Mean
EP4 (h) = molecular target: T1, EP4 (h) (Homo sapiens, UniProt P35408)
T1 construct: gene PTGER4

FP (h) = molecular target: T2, FP (h) (Homo sapiens, UniProt P43088)
T2 construct: gene PTGFR

LPA2 (h) = molecular target: T3, LPA2 (h) (Homo sapiens, UniProt Q9HBW0)
T3 construct: gene LPAR2

M1 (h) = molecular target: T4, M1 (h) (Homo sapiens, UniProt P11229)
T4 construct: gene CHRM1

M3 (h) = molecular target: T5, M3 (h) (Homo sapiens, UniProt P20309)
T5 construct: gene CHRM3

M4 (h) = molecular target: T6, M4 (h) (Homo sapiens, UniProt P08173)
T6 construct: gene CHRM4

M5 (h) = molecular target: T7, M5 (h) (Homo sapiens, UniProt P08912)
T7 construct: gene CHRM5

MC4 (h) = molecular target: T8, MC4 (h) (Homo sapiens, UniProt P32245)
T8 construct: gene MC4R

MC5 (h) = molecular target: T9, MC5 (h) (Homo sapiens, UniProt P33032)
T9 construct: gene MC5R

MCH1 (h) = molecular target: T10, MCH1 (h) (Homo sapiens, UniProt Q99705)
T10 construct: gene MCHR1

MCH2 (h) = molecular target: T11, MCH2 (h) (Homo sapiens, UniProt Q969V1)
T11 construct: gene MCHR2

MRGX1 / MRGPRX1 (h) = MRGX1 / MRGPRX1 (h) (Homo sapiens, UniProt Q96LB2)
MRGX2 / MGRPLX2 (h) = molecular target: T12, MRGX2 / MGRPLX2 (h) (Homo sapiens, UniProt Q96LB1)
T12 construct: gene MRGPRX2

NK1 (h) = molecular target: T13, NK1 (h) (Homo sapiens, UniProt P25103)
T13 construct: gene TACR1

NMU1 (h) = molecular target: T14, NMU1 (h) (Homo sapiens, UniProt Q9HB89)
T14 construct: gene NMUR1

NPBW1 (h) = molecular target: T15, NPBW1 (h) (Homo sapiens, UniProt P48145)
T15 construct: gene NPBWR1

NPS (h) = molecular target: T16, NPS (h) (Homo sapiens, UniProt Q6W5P4)
T16 construct: gene NPSR1

NTS1 (NT1) (h) = molecular target: T17, NTS1 (NT1) (h) (Homo sapiens, UniProt P30989)
T17 construct: gene NTSR1

NTS2 (NT2) (h) = molecular target: T18, NTS2 (NT2) (h) (Homo sapiens, UniProt O95665)
T18 construct: gene NTSR2

OX2 (h) = molecular target: T19, OX2 (h) (Homo sapiens, UniProt O43614)
T19 construct: gene HCRTR2

PK1 (h) = molecular target: T20, PK1 (h) (Homo sapiens, UniProt Q8TCW9)
T20 construct: gene PROKR1

S1P5 (h) = molecular target: T21, S1P5 (h) (Homo sapiens, UniProt Q9H228)
T21 construct: gene S1PR5

motilin (h) = molecular target: T22, motilin (h) (Homo sapiens, UniProt O43193)
T22 construct: gene MLNR

δ (DOP) (h) = molecular target: T23, δ (DOP) (h) (Homo sapiens, UniProt P41143)
T23 construct: gene OPRD1
T23 sequence (P41143 whole entry): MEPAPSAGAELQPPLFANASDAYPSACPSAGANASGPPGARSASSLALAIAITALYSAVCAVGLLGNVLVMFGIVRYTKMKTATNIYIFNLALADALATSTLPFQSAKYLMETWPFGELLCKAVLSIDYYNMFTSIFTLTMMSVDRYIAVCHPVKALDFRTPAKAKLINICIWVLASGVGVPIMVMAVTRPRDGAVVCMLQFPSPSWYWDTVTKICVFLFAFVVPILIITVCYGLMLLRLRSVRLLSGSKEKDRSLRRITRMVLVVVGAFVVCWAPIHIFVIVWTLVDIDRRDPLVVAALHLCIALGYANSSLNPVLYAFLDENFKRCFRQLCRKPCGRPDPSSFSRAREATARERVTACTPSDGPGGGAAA

T21 sequence (Q9H228 whole entry): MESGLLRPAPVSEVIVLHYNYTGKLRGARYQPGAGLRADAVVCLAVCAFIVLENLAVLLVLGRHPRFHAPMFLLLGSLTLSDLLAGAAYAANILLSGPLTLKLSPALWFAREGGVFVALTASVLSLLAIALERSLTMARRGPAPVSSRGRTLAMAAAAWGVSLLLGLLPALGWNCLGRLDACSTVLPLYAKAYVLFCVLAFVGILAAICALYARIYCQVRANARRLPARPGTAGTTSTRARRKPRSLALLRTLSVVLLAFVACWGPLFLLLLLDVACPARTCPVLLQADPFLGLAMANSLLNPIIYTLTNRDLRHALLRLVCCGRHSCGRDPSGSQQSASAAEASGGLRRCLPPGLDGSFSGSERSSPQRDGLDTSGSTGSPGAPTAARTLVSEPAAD
T15 sequence (P48145 whole entry): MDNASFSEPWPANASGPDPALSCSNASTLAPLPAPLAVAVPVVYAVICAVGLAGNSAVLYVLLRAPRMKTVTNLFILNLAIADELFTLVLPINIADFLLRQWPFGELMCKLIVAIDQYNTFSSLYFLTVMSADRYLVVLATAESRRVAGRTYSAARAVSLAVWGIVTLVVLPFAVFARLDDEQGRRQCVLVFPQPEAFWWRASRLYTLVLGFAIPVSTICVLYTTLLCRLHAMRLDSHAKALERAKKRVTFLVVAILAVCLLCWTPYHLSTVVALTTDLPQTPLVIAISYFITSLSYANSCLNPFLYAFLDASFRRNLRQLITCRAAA
T17 sequence (P30989 whole entry): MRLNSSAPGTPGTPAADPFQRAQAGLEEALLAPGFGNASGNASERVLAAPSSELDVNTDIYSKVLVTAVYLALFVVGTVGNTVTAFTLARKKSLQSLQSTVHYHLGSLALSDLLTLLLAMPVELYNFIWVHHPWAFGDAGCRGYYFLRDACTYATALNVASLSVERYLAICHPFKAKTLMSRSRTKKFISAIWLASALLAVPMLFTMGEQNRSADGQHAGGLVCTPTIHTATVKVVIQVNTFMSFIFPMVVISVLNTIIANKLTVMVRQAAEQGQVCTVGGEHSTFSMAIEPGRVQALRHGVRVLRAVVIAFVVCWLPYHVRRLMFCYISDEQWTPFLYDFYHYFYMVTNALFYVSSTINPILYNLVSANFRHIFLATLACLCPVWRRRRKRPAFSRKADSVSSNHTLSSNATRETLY
T11 sequence (Q969V1 whole entry): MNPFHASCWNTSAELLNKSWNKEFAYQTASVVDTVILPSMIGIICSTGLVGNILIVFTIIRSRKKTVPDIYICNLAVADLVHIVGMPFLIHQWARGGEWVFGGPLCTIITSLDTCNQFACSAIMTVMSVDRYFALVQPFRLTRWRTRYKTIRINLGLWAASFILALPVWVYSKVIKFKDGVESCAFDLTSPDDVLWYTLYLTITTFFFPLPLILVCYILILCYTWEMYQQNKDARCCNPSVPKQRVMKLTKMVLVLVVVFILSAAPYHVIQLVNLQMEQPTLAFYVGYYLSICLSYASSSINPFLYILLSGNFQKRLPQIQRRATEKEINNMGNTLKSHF
T9 sequence (P33032 whole entry): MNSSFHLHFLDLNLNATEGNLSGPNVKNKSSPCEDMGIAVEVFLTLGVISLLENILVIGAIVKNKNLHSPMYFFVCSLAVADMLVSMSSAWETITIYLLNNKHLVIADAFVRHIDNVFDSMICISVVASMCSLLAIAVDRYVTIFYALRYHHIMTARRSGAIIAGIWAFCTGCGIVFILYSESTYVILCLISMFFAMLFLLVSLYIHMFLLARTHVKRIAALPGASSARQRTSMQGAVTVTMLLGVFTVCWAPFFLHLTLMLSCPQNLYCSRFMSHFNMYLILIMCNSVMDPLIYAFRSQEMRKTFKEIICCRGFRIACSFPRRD
T19 sequence (O43614 whole entry): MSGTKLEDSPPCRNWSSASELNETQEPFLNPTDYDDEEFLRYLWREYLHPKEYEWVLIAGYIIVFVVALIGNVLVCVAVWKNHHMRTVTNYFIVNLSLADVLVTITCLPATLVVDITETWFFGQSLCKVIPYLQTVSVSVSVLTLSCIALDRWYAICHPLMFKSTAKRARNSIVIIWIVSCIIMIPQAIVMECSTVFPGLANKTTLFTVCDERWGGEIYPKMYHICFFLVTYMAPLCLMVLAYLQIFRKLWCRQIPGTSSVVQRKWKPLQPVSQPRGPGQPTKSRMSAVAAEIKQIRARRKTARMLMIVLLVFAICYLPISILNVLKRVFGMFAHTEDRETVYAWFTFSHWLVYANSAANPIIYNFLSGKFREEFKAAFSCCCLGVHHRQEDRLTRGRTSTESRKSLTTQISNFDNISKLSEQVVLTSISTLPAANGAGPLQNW
T10 sequence (Q99705 whole entry): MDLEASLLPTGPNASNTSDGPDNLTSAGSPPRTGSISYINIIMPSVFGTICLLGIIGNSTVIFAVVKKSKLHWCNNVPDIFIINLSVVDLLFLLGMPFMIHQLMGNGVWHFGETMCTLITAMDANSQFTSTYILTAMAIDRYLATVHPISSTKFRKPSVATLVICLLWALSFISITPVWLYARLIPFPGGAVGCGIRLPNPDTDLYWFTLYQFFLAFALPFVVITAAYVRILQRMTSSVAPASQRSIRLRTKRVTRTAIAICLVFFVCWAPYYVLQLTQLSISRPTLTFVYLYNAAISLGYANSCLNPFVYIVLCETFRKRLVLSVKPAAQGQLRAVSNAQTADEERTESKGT
T1 sequence (P35408 whole entry): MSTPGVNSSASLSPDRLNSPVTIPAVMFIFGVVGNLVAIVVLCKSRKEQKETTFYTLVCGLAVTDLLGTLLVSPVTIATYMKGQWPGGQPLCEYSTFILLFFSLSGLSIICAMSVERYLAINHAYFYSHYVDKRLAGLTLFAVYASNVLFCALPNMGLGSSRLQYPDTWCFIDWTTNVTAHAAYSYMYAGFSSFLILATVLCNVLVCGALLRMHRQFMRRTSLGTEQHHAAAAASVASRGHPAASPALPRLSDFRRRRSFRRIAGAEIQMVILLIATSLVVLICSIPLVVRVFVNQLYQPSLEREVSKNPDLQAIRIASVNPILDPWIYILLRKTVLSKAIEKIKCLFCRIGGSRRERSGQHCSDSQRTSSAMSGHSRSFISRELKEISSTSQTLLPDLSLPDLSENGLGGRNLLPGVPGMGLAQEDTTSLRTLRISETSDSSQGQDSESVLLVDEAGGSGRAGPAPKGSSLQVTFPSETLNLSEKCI
T2 sequence (P43088 whole entry): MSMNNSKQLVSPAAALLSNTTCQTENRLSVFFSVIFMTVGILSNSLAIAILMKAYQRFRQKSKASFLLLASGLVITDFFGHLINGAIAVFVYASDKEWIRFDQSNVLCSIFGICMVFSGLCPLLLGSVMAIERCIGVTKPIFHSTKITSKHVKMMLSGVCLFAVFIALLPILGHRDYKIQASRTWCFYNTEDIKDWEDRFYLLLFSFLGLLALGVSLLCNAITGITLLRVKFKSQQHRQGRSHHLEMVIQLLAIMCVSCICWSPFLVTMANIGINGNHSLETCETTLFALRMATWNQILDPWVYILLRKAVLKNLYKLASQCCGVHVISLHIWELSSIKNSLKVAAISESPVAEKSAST
T16 sequence (Q6W5P4 whole entry): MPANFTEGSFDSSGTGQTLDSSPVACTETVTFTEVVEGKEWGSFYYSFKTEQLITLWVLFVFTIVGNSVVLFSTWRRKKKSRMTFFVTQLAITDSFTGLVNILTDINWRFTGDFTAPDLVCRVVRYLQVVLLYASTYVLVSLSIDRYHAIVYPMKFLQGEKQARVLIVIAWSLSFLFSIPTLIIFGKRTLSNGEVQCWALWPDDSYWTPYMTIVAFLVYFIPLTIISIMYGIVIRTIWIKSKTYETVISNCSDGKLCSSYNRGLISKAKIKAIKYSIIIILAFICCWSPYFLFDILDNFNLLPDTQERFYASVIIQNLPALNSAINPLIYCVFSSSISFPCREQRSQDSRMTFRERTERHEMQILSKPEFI
T4 sequence (P11229 whole entry): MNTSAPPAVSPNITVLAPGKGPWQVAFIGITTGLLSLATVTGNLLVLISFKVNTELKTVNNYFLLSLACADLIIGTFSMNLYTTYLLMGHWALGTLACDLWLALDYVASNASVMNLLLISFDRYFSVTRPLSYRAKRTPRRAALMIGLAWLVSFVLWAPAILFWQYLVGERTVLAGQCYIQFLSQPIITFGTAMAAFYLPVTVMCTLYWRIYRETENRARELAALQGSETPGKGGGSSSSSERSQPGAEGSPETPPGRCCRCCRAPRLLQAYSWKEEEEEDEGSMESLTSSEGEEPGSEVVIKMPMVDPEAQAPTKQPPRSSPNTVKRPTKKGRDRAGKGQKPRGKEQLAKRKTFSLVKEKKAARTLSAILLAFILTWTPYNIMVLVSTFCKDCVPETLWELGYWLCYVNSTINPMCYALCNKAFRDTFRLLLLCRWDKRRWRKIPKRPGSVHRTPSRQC

Structure (SMILES): [O-][S@@+](Cc1cncs1)C(c1ccccc1)c1ccccc1 [S-CE-123, (S)-5-((Benzhydrylsulfinyl)Methyl)Thiazole]
- inhibition at 2.8 µM (EP4 (h)): -1.5%
- inhibition at 2.8 µM (FP (h)): 6.7%
- inhibition at 2.8 µM (LPA2 (h)): -10.9%
- inhibition at 2.8 µM (M1 (h)): 2.6%
- inhibition at 2.8 µM (M3 (h)): 0.8%
- inhibition at 2.8 µM (M4 (h)): -8.5%
- inhibition at 2.8 µM (M5 (h)): -5.9%
- inhibition at 2.8 µM (MC4 (h)): 2.3%
- inhibition at 2.8 µM (MC5 (h)): -8.9%
- inhibition at 2.8 µM (MCH1 (h)): -0.9%
- inhibition at 2.8 µM (MCH2 (h)): 3.1%
- inhibition at 2.8 µM (MRGX1 / MRGPRX1 (h)): 4.9%
- inhibition at 2.8 µM (MRGX2 / MGRPLX2 (h)): 7.1%
- inhibition at 2.8 µM (NK1 (h)): -5.3%
- inhibition at 2.8 µM (NMU1 (h)): -21.3%
- inhibition at 2.8 µM (NPBW1 (h)): -1.9%
- inhibition at 2.8 µM (NPS (h)): -14.3%
- inhibition at 2.8 µM (NTS1 (NT1) (h)): -10%
- inhibition at 2.8 µM (NTS2 (NT2) (h)): 22.9%
- inhibition at 2.8 µM (OX2 (h)): 4.2%
- inhibition at 2.8 µM (PK1 (h)): 2.5%
- inhibition at 2.8 µM (S1P5 (h)): 3.7%
- inhibition at 2.8 µM (motilin (h)): -5.2%
- inhibition at 2.8 µM (δ (DOP) (h)): -2.8%
